Experimental data published in ChEMBL document CHEMBL1201862, “PubChem BioAssay data set” (2004).
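In this assay, cells in 96-well plates receive the compound at five concentrations for 48 hours. Endpoints are linearly interpolated between the surrounding concentrations. Abbreviation: GI50, concentration required for 50% inhibition of growth.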 The source made the active and inactive calls. Cut-off read from the data, not from the text of the source: active = GI50 up to about 1.1 µM and inactive = higher.

How the values were obtained:
Test in all cases: growth of human tumour cells (NCI), 48 h
NCI-H522 = test system: NCI-H522
IGROV-1 = test system: IGROV-1
NCI/ADR-RES = test system: NCI/ADR-RES
MOLT-4 = test system: MOLT-4
K562 = test system: K562
RXF 393 = test system: RXF 393
NCI-H460 = test system: NCI-H460
SF-539 = test system: SF-539
EKVX = test system: EKVX
M14 = test system: M14
SK-OV-3 = test system: SK-OV-3
OVCAR-5 = test system: OVCAR-5
HCT-116 = test system: HCT-116
Malme-3M = test system: Malme-3M
ACHN = test system: ACHN
SK-MEL-28 = test system: SK-MEL-28
UO-31 = test system: UO-31
TK-10 = test system: TK-10
HT-29 = test system: HT-29
HOP-62 = test system: HOP-62

Measured: GI50

CN(CCC#N)c1ccc(/C=C2\SC(=S)NC2=O)cc1
inactive: NCI-H522 71.1 µM | IGROV-1 > 100 µM | NCI/ADR-RES > 100 µM | MOLT-4 42 µM | K562 45.4 µM | RXF 393 23.6 µM | NCI-H460 25.9 µM | SF-539 49.4 µM | EKVX > 100 µM | M14 67.6 µM | SK-OV-3 71.9 µM | OVCAR-5 > 100 µM | HCT-116 29.2 µM | Malme-3M > 100 µM | ACHN 62.4 µM | SK-MEL-28 40.1 µM | UO-31 27.2 µM | TK-10 49.7 µM | HT-29 87.1 µM | HOP-62 41.3 µM

CN1CCOC(c2ccc(Cl)cc2)O1 (configuration not stated)
inactive: NCI-H522 > 100 µM | IGROV-1 > 100 µM | NCI/ADR-RES > 100 µM | MOLT-4 > 100 µM | K562 > 100 µM | RXF 393 > 100 µM | NCI-H460 > 100 µM | SF-539 > 100 µM | EKVX > 100 µM | M14 > 100 µM | SK-OV-3 > 100 µM | OVCAR-5 > 100 µM | Malme-3M > 100 µM | ACHN > 100 µM | SK-MEL-28 > 100 µM | UO-31 > 100 µM | TK-10 > 100 µM | HT-29 > 100 µM | HOP-62 > 100 µM

Oc1c(C(Nc2ccccn2)c2ccccc2)ccc2cccnc12 (configuration not stated)
inactive: NCI-H522 2.68 µM | IGROV-1 3.33 µM | NCI/ADR-RES 1.82 µM | MOLT-4 2.39 µM | K562 3.22 µM | RXF 393 3.84 µM | NCI-H460 2.11 µM | SF-539 3.18 µM | EKVX 3.01 µM | M14 3.08 µM | SK-OV-3 9.4 µM | OVCAR-5 7.78 µM | HCT-116 3.26 µM | Malme-3M 1.46 µM | ACHN 3.56 µM | SK-MEL-28 6.22 µM | UO-31 3.14 µM | TK-10 4.99 µM | HT-29 4.55 µM | HOP-62 4.94 µM

Nc1ncnc2c1ncn2C1OC(C(=O)OCCO)C(O)C1O (configuration not stated)
inactive: NCI-H522 > 100 µM | IGROV-1 > 100 µM | NCI/ADR-RES > 100 µM | MOLT-4 > 100 µM | K562 > 100 µM | RXF 393 > 100 µM | NCI-H460 > 100 µM | SF-539 > 100 µM | EKVX > 100 µM | M14 > 100 µM | SK-OV-3 > 100 µM | OVCAR-5 > 100 µM | HCT-116 > 100 µM | Malme-3M > 100 µM | ACHN > 100 µM | SK-MEL-28 > 100 µM | UO-31 > 100 µM | TK-10 > 100 µM | HT-29 > 100 µM | HOP-62 > 100 µM

CCOC(=O)c1c(N/C(S)=N/c2ccccc2)sc2c1CCOC2
inactive: NCI-H522 64.9 µM | IGROV-1 27.5 µM | NCI/ADR-RES 60.4 µM | MOLT-4 69.5 µM | K562 > 100 µM | RXF 393 69.2 µM | NCI-H460 40.2 µM | SF-539 > 100 µM | EKVX 79.6 µM | M14 39.1 µM | SK-OV-3 85.9 µM | OVCAR-5 38.4 µM | HCT-116 37.2 µM | Malme-3M 52.1 µM | ACHN 97.3 µM | SK-MEL-28 27.5 µM | UO-31 45.9 µM | TK-10 62.8 µM | HT-29 89.9 µM | HOP-62 92 µM

CCCCCC(O)C1C(=O)OC(C)C(O)/C=C/C=C/C=C/C=C\C=C(\C)C(O)CC(O)CC(O)CC(O)CC(O)CC(O)CC1O (configuration not stated)
inactive: NCI-H522 > 50 µM | IGROV-1 > 50 µM | NCI/ADR-RES > 50 µM | MOLT-4 > 50 µM | K562 > 50 µM | RXF 393 > 50 µM | NCI-H460 > 50 µM | SF-539 > 50 µM | EKVX > 50 µM | M14 > 50 µM | SK-OV-3 > 50 µM | OVCAR-5 > 50 µM | HCT-116 > 50 µM | Malme-3M > 50 µM | ACHN > 50 µM | SK-MEL-28 > 50 µM | UO-31 > 50 µM | TK-10 > 50 µM | HT-29 > 50 µM | HOP-62 > 50 µM

CCCCCOC(=O)c1cc2cc(CCl)ccc2oc1=O
inactive: IGROV-1 10.3 µM | NCI/ADR-RES 17.3 µM | MOLT-4 7.33 µM | K562 3.79 µM | RXF 393 2.18 µM | NCI-H460 17.2 µM | SF-539 27.6 µM | EKVX 3.37 µM | M14 1.51 µM | SK-OV-3 16.9 µM | OVCAR-5 14.4 µM | HCT-116 10.1 µM | SK-MEL-28 6.49 µM | UO-31 2.06 µM | HT-29 7.01 µM | HOP-62 8.28 µM
active: NCI-H522 0.213 µM | Malme-3M 0.274 µM | ACHN 0.537 µM | TK-10 0.957 µM

S=C1C(CCCOCc2ccccc2)C2CCCC23CC2(CCN13)OCCS2 (configuration not stated)
inactive: NCI-H522 > 10 µM | IGROV-1 > 10 µM | NCI/ADR-RES > 10 µM | MOLT-4 > 10 µM | K562 > 10 µM | RXF 393 > 10 µM | NCI-H460 > 10 µM | SF-539 > 10 µM | EKVX > 10 µM | M14 > 10 µM | SK-OV-3 > 10 µM | OVCAR-5 > 10 µM | Malme-3M > 10 µM | ACHN > 10 µM | SK-MEL-28 > 10 µM | UO-31 > 10 µM | TK-10 > 10 µM | HT-29 > 10 µM | HOP-62 > 10 µM

CCC(c1c[nH]c2ccc(Br)cc12)c1c[nH]c2ccc(Br)cc12
inactive: NCI-H522 4.44 µM | IGROV-1 4.41 µM | NCI/ADR-RES 3.08 µM | MOLT-4 1.94 µM | K562 2.54 µM | RXF 393 2.32 µM | NCI-H460 2.63 µM | SF-539 12.5 µM | EKVX 5.14 µM | M14 3.22 µM | SK-OV-3 11.9 µM | OVCAR-5 3.78 µM | HCT-116 3.94 µM | Malme-3M 10.6 µM | ACHN 3.65 µM | SK-MEL-28 11.5 µM | UO-31 6.97 µM | TK-10 10.9 µM | HT-29 3.08 µM | HOP-62 10.5 µM

CCOC(NC(=O)CC)(C(F)(F)F)C(F)(F)F
inactive: NCI-H522 > 100 µM | IGROV-1 > 100 µM | NCI/ADR-RES > 100 µM | MOLT-4 > 100 µM | K562 > 100 µM | NCI-H460 > 100 µM | SF-539 > 100 µM | EKVX > 100 µM | M14 > 100 µM | SK-OV-3 > 100 µM | OVCAR-5 > 100 µM | HCT-116 > 100 µM | Malme-3M > 100 µM | ACHN > 100 µM | SK-MEL-28 > 100 µM | UO-31 > 100 µM | TK-10 > 100 µM | HT-29 > 100 µM | HOP-62 > 100 µM
active: RXF 393 0.145 µM

O=C(NC(OCc1ccccc1)(C(F)(F)F)C(F)(F)F)OCc1ccccc1
inactive: NCI-H522 13.6 µM | IGROV-1 15.1 µM | NCI/ADR-RES 12.6 µM | MOLT-4 18.1 µM | K562 17.1 µM | RXF 393 12.5 µM | NCI-H460 16.1 µM | SF-539 17.3 µM | EKVX 15.2 µM | M14 18.9 µM | SK-OV-3 17.5 µM | OVCAR-5 14.3 µM | HCT-116 16.4 µM | Malme-3M 18 µM | ACHN 15.7 µM | SK-MEL-28 17.7 µM | UO-31 11.2 µM | TK-10 7.8 µM | HT-29 18 µM | HOP-62 15.1 µM

O=C1N/C(=N/N=C\c2ccccc2)N/C1=C/c1ccc(Cl)cc1
inactive: NCI-H522 18.5 µM | IGROV-1 14.6 µM | NCI/ADR-RES 23.2 µM | MOLT-4 15.5 µM | K562 34 µM | RXF 393 21.2 µM | NCI-H460 18.4 µM | SF-539 23.9 µM | EKVX 19.4 µM | M14 37.4 µM | SK-OV-3 20.7 µM | OVCAR-5 26.4 µM | HCT-116 26.9 µM | Malme-3M 20.8 µM | ACHN 13.8 µM | SK-MEL-28 39 µM | UO-31 16.2 µM | TK-10 42.3 µM | HT-29 33 µM | HOP-62 17.1 µM

CCc1nnc(S)n1/N=C\c1ccc(-c2ccccc2Cl)o1
inactive: NCI-H522 24.1 µM | IGROV-1 38.7 µM | NCI/ADR-RES 22 µM | MOLT-4 17.5 µM | K562 21.9 µM | RXF 393 38.9 µM | NCI-H460 32.4 µM | SF-539 23 µM | EKVX 36.4 µM | M14 33.2 µM | SK-OV-3 56.9 µM | OVCAR-5 64.6 µM | HCT-116 23.8 µM | Malme-3M 55.7 µM | ACHN 60.8 µM | UO-31 37.7 µM | TK-10 43.7 µM | HT-29 33.4 µM | HOP-62 90.2 µM
